Data as given in US20230114153A1, “IMIDAZOLYL THIOPEHENE SULFONYL CARBAMATES FOR USE IN THE TREATMENT OF DISEASES ASSOCIATED WITH ANGIOTENSIN II” (Vicore Pharma AB, priority 2020, published 2023).

How the values were obtained:
[1] = target: T1, CYP3A4 (Homo sapiens, UniProt P08684); test: CYP inhibition in human liver microsomes, CYP3A4 (midazolam); assay type: in vitro ADME; settings: probe midazolam, substrate midazolam, read-out: CYP3A4 midazolam Inh %
T1 construct: incubated with human liver microsomes; tissue Eurofins (contract protocol) ITEMG232; host or cells: human liver microsomes
T1 sequence (P08684 whole entry): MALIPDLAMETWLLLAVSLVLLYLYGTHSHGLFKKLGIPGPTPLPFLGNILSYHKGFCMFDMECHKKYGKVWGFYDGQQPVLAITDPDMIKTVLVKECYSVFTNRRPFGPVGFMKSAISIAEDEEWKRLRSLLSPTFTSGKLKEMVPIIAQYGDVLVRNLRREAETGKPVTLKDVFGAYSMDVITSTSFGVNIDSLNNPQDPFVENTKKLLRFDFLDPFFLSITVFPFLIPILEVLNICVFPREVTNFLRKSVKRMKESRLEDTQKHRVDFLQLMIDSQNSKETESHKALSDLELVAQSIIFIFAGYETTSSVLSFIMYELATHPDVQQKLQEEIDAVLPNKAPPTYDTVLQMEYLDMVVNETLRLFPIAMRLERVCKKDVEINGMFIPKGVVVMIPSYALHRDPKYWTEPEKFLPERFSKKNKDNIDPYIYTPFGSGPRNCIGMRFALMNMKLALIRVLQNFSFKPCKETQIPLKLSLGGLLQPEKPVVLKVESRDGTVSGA
Protocol: (§1) The following substrates were used; CYP1A phenacetin, CYP2B6 bupropion, CYP2C8 paclitaxel and amodiaquine, CYP2C9 diclofenac, CYP2C19 omeprazole, CYP2D6 dextromethorphan, CYP3A midazolam and testosterone. At the end of the incubation, the formation of metabolite was monitored by HPLC-MS/MS as the peak area response.

[2] = system: CYP3A4&5; test: CYP inhibition in human liver microsomes, CYP3A4&5 (testosterone); assay type: in vitro ADME; settings: probe testosterone, substrate testosterone, read-out: CYP3A4&5 testosterone Inh %
Protocol: as §1

[3] = target: T2, CYP2B6 (Homo sapiens, UniProt P20813); test: CYP inhibition in human liver microsomes, CYP2B6; assay type: in vitro ADME; settings: probe bupropion, substrate bupropion, read-out: CYP2B6 Inh %
T2 construct: incubated with human liver microsomes; tissue Eurofins (contract protocol) ITEMG232; host or cells: human liver microsomes
T2 sequence (P20813 1-491): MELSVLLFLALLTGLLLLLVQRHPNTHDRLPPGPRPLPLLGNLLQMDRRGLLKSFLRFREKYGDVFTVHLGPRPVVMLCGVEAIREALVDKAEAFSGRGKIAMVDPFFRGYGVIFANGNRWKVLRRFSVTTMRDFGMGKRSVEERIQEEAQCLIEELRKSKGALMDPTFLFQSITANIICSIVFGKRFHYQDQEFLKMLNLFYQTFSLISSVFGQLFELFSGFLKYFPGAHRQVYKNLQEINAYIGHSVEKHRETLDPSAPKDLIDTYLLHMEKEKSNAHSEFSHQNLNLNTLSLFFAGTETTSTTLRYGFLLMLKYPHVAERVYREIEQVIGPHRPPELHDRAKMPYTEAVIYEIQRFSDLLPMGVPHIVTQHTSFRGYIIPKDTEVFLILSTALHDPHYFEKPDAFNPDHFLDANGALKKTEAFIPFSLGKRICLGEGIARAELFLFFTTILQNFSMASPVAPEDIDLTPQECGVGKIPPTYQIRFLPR
Protocol: as §1

[4] = target: T3, human recombinant AT2 receptor (Homo sapiens, UniProt P50052); test: Binding to human recombinant AT2 receptor, radiometric scintillation assay (Eurofins ITEM26); settings: ligand 125I CGP 42112A, 2-4 h at 37° C., tested at 1, 10, 100 and 1000 nM
T3 construct: Eurofins (contract protocol) ITEM26
T3 sequence (P50052 1-363): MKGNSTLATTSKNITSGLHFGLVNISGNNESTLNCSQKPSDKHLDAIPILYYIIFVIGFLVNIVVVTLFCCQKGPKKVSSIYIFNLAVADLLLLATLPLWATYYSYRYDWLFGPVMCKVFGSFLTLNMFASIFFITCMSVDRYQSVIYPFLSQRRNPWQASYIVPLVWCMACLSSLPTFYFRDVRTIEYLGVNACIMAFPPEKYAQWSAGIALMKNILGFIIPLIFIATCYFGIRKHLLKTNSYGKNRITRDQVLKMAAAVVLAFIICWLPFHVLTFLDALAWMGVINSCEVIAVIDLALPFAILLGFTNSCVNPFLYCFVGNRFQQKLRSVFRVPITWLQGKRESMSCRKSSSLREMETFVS

[5] = target: T4, CYP2C19 (Homo sapiens, UniProt P33261); test: CYP inhibition in human liver microsomes, CYP2C19; assay type: in vitro ADME; settings: probe omeprazole, substrate omeprazole, read-out: CYP2C19 Inh %
T4 construct: incubated with human liver microsomes; tissue Eurofins (contract protocol) ITEMG232; host or cells: human liver microsomes
T4 sequence (P33261 whole entry): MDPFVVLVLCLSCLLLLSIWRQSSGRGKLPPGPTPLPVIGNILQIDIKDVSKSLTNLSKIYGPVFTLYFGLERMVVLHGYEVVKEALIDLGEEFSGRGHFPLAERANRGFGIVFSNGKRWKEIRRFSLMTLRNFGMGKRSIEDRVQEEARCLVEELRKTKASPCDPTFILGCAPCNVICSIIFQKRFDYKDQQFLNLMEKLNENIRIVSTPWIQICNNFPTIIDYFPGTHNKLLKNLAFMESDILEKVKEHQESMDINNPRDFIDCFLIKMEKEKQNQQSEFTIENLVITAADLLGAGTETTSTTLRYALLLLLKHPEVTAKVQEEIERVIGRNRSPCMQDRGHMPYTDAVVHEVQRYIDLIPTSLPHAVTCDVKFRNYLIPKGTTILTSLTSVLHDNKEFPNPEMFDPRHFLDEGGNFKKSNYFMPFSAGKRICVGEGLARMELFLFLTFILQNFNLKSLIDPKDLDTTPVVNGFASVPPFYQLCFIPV
Protocol: as §1

[6] = target: T5, CYP1A (Homo sapiens, UniProt P05177); test: CYP inhibition in human liver microsomes, CYP1A; assay type: in vitro ADME; settings: probe phenacetin, substrate phenacetin, read-out: CYP1A Inh %
T5 construct: incubated with human liver microsomes; tissue Eurofins (contract protocol) ITEMG232; host or cells: human liver microsomes
T5 sequence (P05177 1-516): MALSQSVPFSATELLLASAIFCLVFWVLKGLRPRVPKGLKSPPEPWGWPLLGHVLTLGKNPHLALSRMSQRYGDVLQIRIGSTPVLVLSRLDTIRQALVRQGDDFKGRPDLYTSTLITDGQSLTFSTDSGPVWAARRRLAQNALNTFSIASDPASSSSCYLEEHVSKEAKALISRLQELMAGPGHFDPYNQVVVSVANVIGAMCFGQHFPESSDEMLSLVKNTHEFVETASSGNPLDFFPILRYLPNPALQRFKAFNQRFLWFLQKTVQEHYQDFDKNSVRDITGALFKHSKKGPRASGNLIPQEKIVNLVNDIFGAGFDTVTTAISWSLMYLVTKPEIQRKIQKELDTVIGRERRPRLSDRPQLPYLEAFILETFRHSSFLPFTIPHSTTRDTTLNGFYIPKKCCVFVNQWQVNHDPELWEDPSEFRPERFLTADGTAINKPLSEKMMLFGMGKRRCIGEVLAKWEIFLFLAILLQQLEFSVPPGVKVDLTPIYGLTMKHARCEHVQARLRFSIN
Protocol: as §1

[7] = target: T6, CYP2C8 (Homo sapiens, UniProt P10632); test: CYP inhibition in human liver microsomes, CYP2C8; assay type: in vitro ADME; settings: probe paclitaxel and amodiaquine, substrates paclitaxel and amodiaquine, read-out: CYP2C8 Inh %
T6 construct: incubated with human liver microsomes; tissue Eurofins (contract protocol) ITEMG232; host or cells: human liver microsomes
T6 sequence (P10632 1-490): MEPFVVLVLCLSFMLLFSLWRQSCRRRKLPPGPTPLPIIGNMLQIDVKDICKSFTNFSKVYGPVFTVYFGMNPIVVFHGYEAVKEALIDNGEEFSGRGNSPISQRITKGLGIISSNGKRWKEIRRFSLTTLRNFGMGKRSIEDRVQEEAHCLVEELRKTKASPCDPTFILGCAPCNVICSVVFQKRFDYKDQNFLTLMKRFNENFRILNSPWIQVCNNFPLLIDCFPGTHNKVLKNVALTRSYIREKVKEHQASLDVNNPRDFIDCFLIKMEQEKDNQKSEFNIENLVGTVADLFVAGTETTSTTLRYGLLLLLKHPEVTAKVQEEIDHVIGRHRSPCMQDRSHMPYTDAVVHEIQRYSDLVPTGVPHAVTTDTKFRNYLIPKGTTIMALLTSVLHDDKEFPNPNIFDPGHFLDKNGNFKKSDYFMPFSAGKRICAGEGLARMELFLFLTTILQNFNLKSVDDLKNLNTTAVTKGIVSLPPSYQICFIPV
Protocol: as §1

[8] = target: T7, CYP2D6 (Homo sapiens, UniProt P10635); test: CYP inhibition in human liver microsomes, CYP2D6; assay type: in vitro ADME; settings: probe dextromethorphan, substrate dextromethorphan, read-out: CYP2D6 Inh %
T7 construct: incubated with human liver microsomes; tissue Eurofins (contract protocol) ITEMG232; host or cells: human liver microsomes
T7 sequence (P10635 whole entry): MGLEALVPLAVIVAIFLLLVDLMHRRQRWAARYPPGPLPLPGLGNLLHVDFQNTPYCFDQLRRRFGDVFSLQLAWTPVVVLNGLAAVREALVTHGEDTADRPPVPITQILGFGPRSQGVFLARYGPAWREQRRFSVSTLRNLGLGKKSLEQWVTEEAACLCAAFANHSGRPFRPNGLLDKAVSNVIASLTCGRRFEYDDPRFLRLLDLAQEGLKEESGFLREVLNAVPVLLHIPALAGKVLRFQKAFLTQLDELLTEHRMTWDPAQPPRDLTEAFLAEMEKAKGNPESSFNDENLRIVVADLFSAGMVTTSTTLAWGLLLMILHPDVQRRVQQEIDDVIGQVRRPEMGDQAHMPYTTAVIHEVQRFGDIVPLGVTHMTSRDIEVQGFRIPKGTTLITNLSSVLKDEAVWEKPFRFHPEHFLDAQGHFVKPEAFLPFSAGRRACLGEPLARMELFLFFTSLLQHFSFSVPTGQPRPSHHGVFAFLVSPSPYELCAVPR
Protocol: as §1

[9] = target: T8, CYP2C9 (Homo sapiens, UniProt P11712); test: CYP inhibition in human liver microsomes, CYP2C9; assay type: in vitro ADME; settings: probe diclofenac, substrate diclofenac, read-out: CYP2C9 Inh %
T8 construct: incubated with human liver microsomes; tissue Eurofins (contract protocol) ITEMG232; host or cells: human liver microsomes
T8 sequence (P11712 whole entry): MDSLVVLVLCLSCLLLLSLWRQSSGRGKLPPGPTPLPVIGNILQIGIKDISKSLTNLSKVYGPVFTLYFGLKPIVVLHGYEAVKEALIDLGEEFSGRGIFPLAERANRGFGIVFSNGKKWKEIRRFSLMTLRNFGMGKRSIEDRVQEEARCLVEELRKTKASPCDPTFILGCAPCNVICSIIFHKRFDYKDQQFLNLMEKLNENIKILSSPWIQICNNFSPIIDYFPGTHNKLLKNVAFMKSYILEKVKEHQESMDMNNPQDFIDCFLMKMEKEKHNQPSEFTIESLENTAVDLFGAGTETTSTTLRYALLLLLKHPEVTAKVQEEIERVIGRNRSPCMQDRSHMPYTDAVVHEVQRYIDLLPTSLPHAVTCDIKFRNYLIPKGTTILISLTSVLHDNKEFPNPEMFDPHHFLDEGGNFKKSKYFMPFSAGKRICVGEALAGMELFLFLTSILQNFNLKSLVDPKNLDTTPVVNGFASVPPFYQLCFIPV
Protocol: as §1

inhibition at 10 µM [1] [%] | inhibition at 10 µM [2] [%] | inhibition at 10 µM [3] [%] | IC50 [4] [nM] | inhibition at 10 µM [5] [%] | inhibition at 10 µM [6] [%] | inhibition at 10 µM [7] [%] | inhibition at 10 µM [8] [%] | inhibition at 10 µM [9] [%] | SMILES
~0 | 13.5 | 17.6 | 0.53 | 43 | 2.5 | 37.5 | 22.4 | 58.9 | CCCCOC(=O)NS(=O)(=O)c1sc(CC(C)C)cc1-c1ccc(Cn2ccnc2C)cc1 [Example 1, Butyl (5-isobutyl-3-(4-((2-methyl-1H-imidazol-1-yl)methyl)phenyl)thiophen-2-yl)sulfonyl-carbamate]
95.2 | 94.2 | 48.8 | – | – | 90.9 | 80.4 | 81.2 | – | CCCCOC(=O)NS(=O)(=O)c1sc(CC(C)C)cc1-c1ccc(Cn2ccnc2)cc1 [Example C21, N-butyloxycarbonyl-3-(4-imidazol-1-ylmethylphenyl)-5-isobutylthiophene-2-sulfon-amide, reference compound]
